Measurements: ChEMBL document CHEMBL3044664, “Synthesis of coumarin-based 1,3,4-oxadiazol-2ylthio-N-phenyl/benzothiazolyl acetamides as antimicrobial and antituberculosis agents” (2013)
Converted amounts (≈) assume the structure as drawn.

Experiments:
Type in all cases: functional
Bacillus cereus = experiment: Antibacterial activity against Bacillus cereus MTCC 430 assessed as growth inhibition by agar streak dilution method
Aspergillus niger = experiment: Antifungal activity against Aspergillus niger MTCC 282 assessed as growth inhibition by agar streak dilution method
Klebsiella pneumoniae = experiment: Antibacterial activity against Klebsiella pneumoniae MTCC 109 assessed as growth inhibition by agar streak dilution method
Proteus vulgaris = experiment: Antibacterial activity against Proteus vulgaris MTCC 1771 assessed as growth inhibition by agar streak dilution method
[1] = system: Mycobacterium tuberculosis; experiment: Antitubercular activity against Mycobacterium tuberculosis H37Rv assessed as growth inhibition at MIC by Lowenstein-Jensen method
Aspergillus clavatus = experiment: Antifungal activity against Aspergillus clavatus MTCC 1323 assessed as growth inhibition by agar streak dilution method
[2] = system: Mycobacterium tuberculosis; experiment: Antitubercular activity against Mycobacterium tuberculosis H37Rv assessed as growth inhibition by BACTEC MGIT method
Aspergillus fumigatus = experiment: Antifungal activity against Aspergillus fumigatus MTCC 343 assessed as growth inhibition by agar streak dilution method
Salmonella typhi = experiment: Antibacterial activity against Salmonella enterica subsp. enterica serovar Typhi MTCC 733 assessed as growth inhibition by agar streak dilution method
[3] = system: Mycobacterium tuberculosis; experiment: Antitubercular activity against Mycobacterium tuberculosis H37Rv assessed as growth inhibition by Lowenstein-Jensen method
Shigella flexneri = experiment: Antibacterial activity against Shigella flexneri MTCC 1457 assessed as growth inhibition by agar streak dilution method
Pseudomonas aeruginosa = experiment: Antibacterial activity against Pseudomonas aeruginosa MTCC 741 assessed as growth inhibition by agar streak dilution method
Escherichia coli = experiment: Antibacterial activity against Escherichia coli MTCC 739 assessed as growth inhibition by agar streak dilution method
Staphylococcus aureus = experiment: Antibacterial activity against Staphylococcus aureus MTCC 96 assessed as growth inhibition by agar streak dilution method
Candida albicans = experiment: Antifungal activity against Candida albicans MTCC 183 assessed as growth inhibition by agar streak dilution method

Row | SMILES | MIC (Bacillus cereus) [µg/mL] | MIC (Aspergillus niger) [µg/mL] | MIC (Klebsiella pneumoniae) [µg/mL] | MIC (Proteus vulgaris) [µg/mL] | growth inhibition (GI) [1] [%] | MIC (Aspergillus clavatus) [µg/mL] | MIC [2] [µg/mL] | MIC (Aspergillus fumigatus) [µg/mL] | MIC (Salmonella typhi) [µg/mL] | MIC [3] [µg/mL] | MIC (Shigella flexneri) [µg/mL] | MIC (Pseudomonas aeruginosa) [µg/mL] | MIC (Escherichia coli) [µg/mL] | MIC (Staphylococcus aureus) [µg/mL] | MIC (Candida albicans) [µg/mL]
1 | O=C(CSc1nnc(-c2cc3ccccc3oc2=O)o1)Nc1nc2ccc(Br)cc2s1 | 3.12 (≈ 6.05 µM) | 25 (≈ 48.5 µM) | 100 (≈ 194 µM) | 50 (≈ 97 µM) | 99 | 100 (≈ 194 µM) | > 6.25 | 100 (≈ 194 µM) | 100 (≈ 194 µM) | 12.5 (≈ 24.3 µM) | 50 (≈ 97 µM) | 100 (≈ 194 µM) | 50 (≈ 97 µM) | 25 (≈ 48.5 µM) | 50 (≈ 97 µM)
2 | O=C(CSc1nnc(-c2cc3ccccc3oc2=O)o1)Nc1ccc(Br)cc1 | 12.5 (≈ 27.3 µM) | 50 (≈ 109 µM) | 100 (≈ 218 µM) | 100 (≈ 218 µM) | 97 | 100 (≈ 218 µM) | > 6.25 | 100 (≈ 218 µM) | 100 (≈ 218 µM) | 62.5 (≈ 136 µM) | 100 (≈ 218 µM) | 50 (≈ 109 µM) | 12.5 (≈ 27.3 µM) | 50 (≈ 109 µM) | 50 (≈ 109 µM)
3 | O=C(CSc1nnc(-c2cc3ccccc3oc2=O)o1)Nc1nc2ccc(F)cc2s1 | 12.5 (≈ 27.5 µM) | 12.5 (≈ 27.5 µM) | 100 (≈ 220 µM) | 100 (≈ 220 µM) | 98 | 50 (≈ 110 µM) | > 6.25 | 25 (≈ 55 µM) | 50 (≈ 110 µM) | 50 (≈ 110 µM) | 25 (≈ 55 µM) | 50 (≈ 110 µM) | 50 (≈ 110 µM) | 12.5 (≈ 27.5 µM) | 50 (≈ 110 µM)
4 | COc1ccc2nc(NC(=O)CSc3nnc(-c4cc5ccccc5oc4=O)o3)sc2c1 | 50 (≈ 107 µM) | 50 (≈ 107 µM) | 100 (≈ 214 µM) | 25 (≈ 53.6 µM) | 98 | 25 (≈ 53.6 µM) | > 6.25 | 100 (≈ 214 µM) | 25 (≈ 53.6 µM) | 25 (≈ 53.6 µM) | 50 (≈ 107 µM) | 50 (≈ 107 µM) | 100 (≈ 214 µM) | 25 (≈ 53.6 µM) | 50 (≈ 107 µM)
5 | O=C(CSc1nnc(-c2cc3ccccc3oc2=O)o1)Nc1ccccc1 | 100 (≈ 264 µM) | > 100 | > 100 | > 100 | 95 | > 100 | > 6.25 | > 100 | > 100 | 500 (≈ 1320 µM) | > 100 | > 100 | 100 (≈ 264 µM) | > 100 | 100 (≈ 264 µM)
6 | N#Cc1ccc2nc(NC(=O)CSc3nnc(-c4cc5ccccc5oc4=O)o3)sc2c1 | 100 (≈ 217 µM) | 100 (≈ 217 µM) | 25 (≈ 54.2 µM) | 100 (≈ 217 µM) | 98 | 100 (≈ 217 µM) | > 6.25 | > 100 | 100 (≈ 217 µM) | 100 (≈ 217 µM) | > 100 | > 100 | 50 (≈ 108 µM) | 25 (≈ 54.2 µM) | 50 (≈ 108 µM)
7 | N#Cc1ccc(NC(=O)CSc2nnc(-c3cc4ccccc4oc3=O)o2)cc1 | 100 (≈ 247 µM) | > 100 | 50 (≈ 124 µM) | 100 (≈ 247 µM) | 95 | > 100 | > 6.25 | > 100 | 100 (≈ 247 µM) | 200 (≈ 495 µM) | > 100 | 100 (≈ 247 µM) | 50 (≈ 124 µM) | 6.25 (≈ 15.5 µM) | 50 (≈ 124 µM)
8 | Cc1ccc(NC(=O)CSc2nnc(-c3cc4ccccc4oc3=O)o2)cc1 | 50 (≈ 127 µM) | 100 (≈ 254 µM) | > 100 | > 100 | 94 | 100 (≈ 254 µM) | > 6.25 | > 100 | 100 (≈ 254 µM) | 500 (≈ 1270 µM) | > 100 | > 100 | > 100 | 100 (≈ 254 µM) | > 100
9 | O=C(O)c1cn(C2CC2)c2cc(N3CCNCC3)c(F)cc2c1=O [CIPROFLOXACIN] | 0.39 (≈ 1.18 µM) | – | 0.78 (≈ 2.35 µM) | 0.39 (≈ 1.18 µM) | – | – | – | – | 0.39 (≈ 1.18 µM) | – | 1.56 (≈ 4.71 µM) | 0.78 (≈ 2.35 µM) | – | 1.56 (≈ 4.71 µM) | –
10 | CC(=O)N1CCN(c2ccc(OCC3COC(Cn4ccnc4)(c4ccc(Cl)cc4Cl)O3)cc2)CC1 (stereo unspecified) [KETOCONAZOLE] | – | 1.56 (≈ 2.94 µM) | – | – | – | 0.78 (≈ 1.47 µM) | – | 0.78 (≈ 1.47 µM) | – | – | – | – | – | – | 1.56 (≈ 2.94 µM)
